Test results: paper PMC4245091, “Novel Virtual Screening Approach for the Discovery of Human Tyrosinase Inhibitors” (PLoS ONE, 2014)
pIC50: −log10 of the molar value.

Target: T1, Mushroom tyrosinase
T1 construct: gene PPO1; commercial native mushroom preparation (Sigma-Aldrich)
Assay: L-tyrosine to dopachrome, absorbance at […] nm
Format: biochemical
Settings: L-tyrosine 0.2 mg/ml; 2 µg/ml enzyme; 100 mM phosphate pH 6.8; 5% ethanol; 25 °C; 30 min

pIC50: 5.10
SMILES: CC(C)c1ccc(C(=O)CC(Sc2ccc(Cl)cc2)C(=O)O)cc1 (stereo not shown) [Lead1]
